In PMC10138714, “Evaluation of Some Safety Parameters of Dual Histamine H3 and Sigma-2 Receptor Ligands with Anti-Obesity Potential” (International Journal of Molecular Sciences, 2023):

Key:
[1] = biological target: σ1R; parameters: method as in PMID 34908391; details: cited from earlier work; for σ1/σ2: ratio of Ki values
[2] = biological target: σ2R; parameters: method as in PMID 34908391; details: cited from earlier work
[3] = system: rats fed a palatable diet; assay: Plasma AlaT, AspaT, gGT and ALP activity after repeated administration in rats fed a palatable diet; type: in vivo; details: 10 mg/kg b.w. i.p. repeated; for Plasma gGT activity: vs palatable feed-fed control group
Method: Standard diet ( 8% fats, 67% carbohydrates, and 25% proteins) contained 100 g feed—280 kcal. Rats fed a palatable diet had access to a diet consisting of milk chocolate with nuts, cheese, salted peanuts, and 7% condensed milk and simultaneously to standard feed (Labofeed B, Morawski Manufacturer Feed, Kcynia, Poland) for 4 weeks. The feeding was not in any way forced, and rats decided themselves when, what, and how much to eat. A palatable diet contained 100 g of peanuts—612 kcal; 100 mL of condensed milk—131 kcal; 100 g of milk chocolate—529 kcal; and 100 g of cheese—325 kcal.
The study evaluating the activities of alanine aminotransferase (AlaT), aspartate aminotransferase (AspaT), gamma-glutamyl transpeptidases (gGT), and alkaline phosphatase (ALP) was carried out after completing the excessive eating model experiments described in our previous work. Compounds were administered for twenty-eight days at a dose of 10 mg/kg b.w./day. On the 31st day of the experiment, 20 min after i.p. administration of heparin (5000 units/rat) and thiopental (70 mg/kg b.w.), blood was collected from the left carotid artery and then centrifuged at 600× g (15 min, 4 °C) in order to obtain the plasma. To determine the activities of AlaT, AapaT, gGT, and ALP in the plasma samples, a standard enzymatic spectrophotometric test (Biomaxima S.A., Lublin, Poland) was used.

[4] = system: mice; assay: Motor coordination in the chimney test; type: in vivo, male Albino Swiss (CD-1) mice; details: for % of Mice Impaired: chimney test, 30 min after injection, n = 8
Method: (§1) Blood pressure measurement and ECG were performed on male Wistar rats weighing 200–220 g (six months old). Locomotor activity and chimney tests were performed on adult male Albino Swiss (CD-1) mice weighing 18–22 g ([…]). The animals were obtained from an accredited animal house at the Faculty of Pharmacy, Jagiellonian University Medical College, Krakow, Poland. The experimental groups consisted of 6–8 animals. The animals were housed in constant temperature (22–24 °C) and humidity (40–60%) facilities, exposed to 12:12 h light/dark cycles, and were maintained on a standard pellet diet with tap water available ad libitum. Rats and mice were housed in pairs or 8 animals per home cage, respectively.
The effect of tested compounds on motor impairment were quantified with the chimney test of Boissier et al. (1960). The mice were trained before the test, and only the animals able to get out of the chimney within 1 min were used at the experimental stage. The selected mice were placed in a 25 cm-long and 2.5 cm in diameter […] tube, which was reversed so that the mice could leave it only by climbing up backward until they reached the other end. The test was performed 30 min after injection (i.p.) of the examined compounds. Motor impairment was indicated by the inability of the animals to climb up backwards in the transparent tube within 60 s.

[5] = biological target: T1, human ERG potassium channel (Kv11.1) (Homo sapiens, UniProt Q12809); assay: Whole-cell automated patch clamp (QPatch16X), inhibition of hERG currents; type: cell-based; details: for IC50: CHO cells stably expressing human ERG, whole-cell, mean of three experiments, read-out: Mean IC50 ± SEM, inhibition of hERG currents; for Inhibition of hERG compared with verapamil: relative to reference compound verapamil
T1 construct: expressed in transfected cells
T1 sequence (Q12809 whole entry): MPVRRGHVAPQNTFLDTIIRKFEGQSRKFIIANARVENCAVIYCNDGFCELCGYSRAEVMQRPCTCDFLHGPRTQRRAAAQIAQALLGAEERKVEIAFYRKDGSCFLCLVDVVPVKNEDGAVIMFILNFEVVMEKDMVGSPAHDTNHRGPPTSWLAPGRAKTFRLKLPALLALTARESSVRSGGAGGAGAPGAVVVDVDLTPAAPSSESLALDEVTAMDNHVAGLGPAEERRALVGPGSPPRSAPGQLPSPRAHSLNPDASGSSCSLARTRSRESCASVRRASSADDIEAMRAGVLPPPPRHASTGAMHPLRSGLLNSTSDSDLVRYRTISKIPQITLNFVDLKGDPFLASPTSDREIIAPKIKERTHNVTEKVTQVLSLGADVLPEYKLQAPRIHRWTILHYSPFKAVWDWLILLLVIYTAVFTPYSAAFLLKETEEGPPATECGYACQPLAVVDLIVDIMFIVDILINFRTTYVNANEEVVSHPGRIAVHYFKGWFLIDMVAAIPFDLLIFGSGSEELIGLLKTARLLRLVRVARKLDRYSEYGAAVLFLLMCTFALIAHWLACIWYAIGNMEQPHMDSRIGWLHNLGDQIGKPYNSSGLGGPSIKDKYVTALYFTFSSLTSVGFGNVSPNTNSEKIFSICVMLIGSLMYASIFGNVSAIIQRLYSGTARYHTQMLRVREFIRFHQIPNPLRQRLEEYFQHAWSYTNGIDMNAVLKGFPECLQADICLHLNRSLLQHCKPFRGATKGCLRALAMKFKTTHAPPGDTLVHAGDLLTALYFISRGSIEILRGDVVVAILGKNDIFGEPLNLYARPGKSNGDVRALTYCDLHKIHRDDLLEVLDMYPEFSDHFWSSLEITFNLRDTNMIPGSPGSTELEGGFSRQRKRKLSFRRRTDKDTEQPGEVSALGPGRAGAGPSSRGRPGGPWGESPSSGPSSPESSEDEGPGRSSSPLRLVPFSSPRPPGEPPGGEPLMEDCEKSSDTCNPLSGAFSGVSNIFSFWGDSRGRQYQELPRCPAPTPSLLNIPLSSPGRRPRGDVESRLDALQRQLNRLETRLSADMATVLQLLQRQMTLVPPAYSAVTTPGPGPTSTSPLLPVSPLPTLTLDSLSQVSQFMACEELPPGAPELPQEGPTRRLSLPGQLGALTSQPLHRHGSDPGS
Method: Electrophysiology experiments were performed on a QPatch16X automatic patch clamp platform (Sophion Bioscience, Ballerup, Denmark). Chinese hamster ovary (CHO) cells stably expressing the human ERG potassium channel (Kv11.1) were cultured using standard procedures. On the day of the experiment, cells were collected from the culture flask using TrypLE Express solution (Life Technologies, Thermo Fisher Scientific, Carlsbad, California, United States) and resuspended in EX-CELL ACF CHO serum-free medium (Merck KGaA, Sigma-Aldrich, Darmstadt, Germany), supplemented with 25 mM HEPES, 100 U/mL penicillin/streptomycin, and 0.04 mg/mL soybean trypsin inhibitor (all components from Sigma Aldrich).
The cells were placed in the lidless microtube and located onboard the automated electrophysiology instrument, where they were automatically relocated to a built-in centrifuge.
Cells were transferred to pipetting wells of single-use 16-channel planar patch chip plates (QPlate 16X, Sophion Bioscience, Ballerup, Denmark) and gigaseals were formed upon application of a combined suction/voltage protocol in a standard protocol supplied by Sophion Bioscience for CHO cells. Once the whole-cell mode was obtained, the cells were kept in a holding potential of -90 mV between the programmed stimulation protocols.
Whole-cell potassium currents were measured in response to repeatedly executed voltage protocols constituted of the following steps: brief clamping to −50 mV (200 ms), subsequent depolarization to 20 mV for 4000 ms, and final repolarization to −50 mV when the outward tail current was measured for 4000 ms.
The average current peak values determined in the presence of particular concentrations of the compound tested were subjected to a sigmoidal dose–response curve fitting, where the bottom plateau parameter was constrained to 0. The IC50 values were then calculated from the obtained sigmoidal dose–response curves. Data were analyzed using QPatch Assay Software (v5.0, Sophion Bioscience, Ballerup, Denmark) and represent the mean of three experiments carried out on distinct cells.

[6] = system: normotensive rats; assay: Blood pressure in anesthetized normotensive rats (carotid artery cannulation); type: in vivo, male Wistar rats; details: single i.p. 10 mg/kg b.w.
Method: as §1
Rats were anesthetized with thiopental (70 mg/kg) via i.p. injection. The left carotid artery was cannulated with polyethylene tubing filled with a heparin solution in saline to facilitate pressure measurements using a PowerLab Apparatus (ADInstruments, Sydney, Australia). After a 20 min stabilization period, the test compounds were administered i.p. at a dose of 10 mg/kg b.w. in a constant volume of 1 mL/kg b.w. Blood pressure was recorded immediately before administration and 5, 10, 15, 20, 30, 40, 50, and 60 min after the administration of the test compound [47].

[7] = system: rats; assay: Heart rate and ECG intervals in rats; type: in vivo, male Wistar rats; details: 10 mg/kg i.p.
Method: as §1
In vivo electrocardiographic measurements were performed using an ASPEL ASCARD B5 apparatus, standard lead II, and a paper speed of 50 mm/s. The study was carried out after a single administration of the test compounds (10 mg/kg i.p.). […] The following parameters were then calculated and analyzed: duration of PQ, QT, QRS, RR intervals, and heart rate.

[8] = system: mice; assay: Locomotor activity in mice (activity cages, photobeam breaks); type: in vivo, male Albino Swiss (CD-1) mice; details: single i.p. 30 mg/kg b.w., vs vehicle group
Method: as §1
Locomotor activity was individually recorded for each animal using specifically designed activity cages made of clear Perspex (40 cm × 40 cm × 31 cm, Activity Cage 7441, Ugo Basile, Italy). The cages were supplied with I.R. horizontal beam emitters connected to a counter that records the light-beam interruptions. The compounds suspensions were administered as i.p. injections 30 min before testing. Control animals received injections of vehicles. Each mouse was placed in a cage for a 30 min habituation period. After that time, the number of breaks in the photobeams was measured for 5 min, which is the same time as the observation period used in other tests.

[9] = biological target: H3R; parameters: method as in PMID 34908391; details: cited from earlier work; for H3/σ1 / H3/σ2: ratio of Ki values

Compound | Ki [1] | σ1/σ2 [1] | Ki [2] | Plasma gGT activity [3] | % of Mice Impaired ([4]; 10 mg/kg i.p.) | % of Mice Impaired ([4]; 20 mg/kg i.p.) | % of Mice Impaired ([4]; 30 mg/kg i.p.) | IC50 [5] | Inhibition of hERG compared with verapamil [5] | Heart rate ([7]; time 0 min) | PQ ([7]; time 0 min) | QRS ([7]; time 0 min) | QT ([7]; time 0 min) | Heart rate ([7]; time 15 min) | PQ ([7]; time 15 min) | QRS ([7]; time 15 min) | QT ([7]; time 15 min) | Heart rate ([7]; time 30 min) | PQ ([7]; time 30 min) | QRS ([7]; time 30 min) | also measured
c1ccc(-c2ccc(OCCCN3CCN(c4ccncc4)CC3)cc2)cc1 [KSK-61] | 638 nM | 5.90 | 108 nM | statistically lower gGT activity | 25% | 12.5% | 25% | 2660 ± 217 nM | about five times weaker | 373.2 ± 20.3 beats/min | 53 ± 1.6 ms | 20.8 ± 0.8 ms | 56.3 ± 4.1 ms | 369.5 ± 9.5 beats/min | 52.8 ± 1.5 ms | 21.5 ± 0.5 ms | 56.3 ± 2.2 ms | 380.2 ± 30.5 beats/min | 54.5 ± 3.5 ms | 21.8 ± 1.1 ms | Plasma AspaT activity ([3]; relative to both control groups (standard or palatable feed)): higher AspaT activity; Plasma ALP activity ([3]; vs control group fed standard feed): greater ALP activity; Effect on motor coordination (chimney test) ([4]; mice, 10-30 mg/kg i.p., Fisher exact probability test): decreases the ability to exit the chimney at all doses tested in one or two mice per group; Effect on blood pressure ([6]; vs vehicle (1% Tween 80)): did not affect blood pressure; QT ([7]; time 30 min): 58.8 ± 2.2 ms; Heart rate ([7]; time 45 min): 349.5 ± 21.3 beats/min; PQ ([7]; time 45 min): 53.3 ± 1.8 ms; QRS ([7]; time 45 min): 21.8 ± 0.8 ms; QT ([7]; time 45 min): 57.5 ± 4.3 ms; Heart rate ([7]; time 60 min): 360.4 ± 20.3 beats/min; PQ ([7]; time 60 min): 53 ± 1.6 ms; QRS ([7]; time 60 min): 21.8 ± 0.4 ms; QT ([7]; time 60 min): 55 ± 5.0 ms; Locomotor activity [8]: significant decrease; Ki [9]: 21.1 nM; H3/σ1 [9]: 0.03; H3/σ2 [9]: 0.20
CC(=O)c1ccc(OCCCCCCCCN2CCN(c3ccncc3)CC2)cc1 [KSK-73] | 408 nM | 6.84 | 59.7 nM | statistically lower gGT activity | 12.5% | 0% | 0% | 2070 ± 402 nM | four times weaker | 370.0 ± 23.9 beats/min | 56.3 ± 2.2 ms | 22.7 ± 5.4 ms | 61.3 ± 2.2 ms | 375.5 ± 23.9 beats/min | 51.3 ± 2.2 ms | 22.7 ± 5.4 ms | 63.8 ± 4.1 ms | 377.1 ± 27.3 beats/min | 51.3 ± 2.2 ms | 22.7 ± 5.4 ms | Plasma AlaT activity ([3]; vs vehicle control fed palatable feed): lower; Plasma ALP activity ([3]; vs vehicle group with palatable feed): lower plasma ALP activity; Decrease of diastolic blood pressure ([6]; 30–60 min after administration): 10–14 mmHg; Decrease of systolic blood pressure ([6]; 30–60 min after administration): approx. 12 mmHg; QT ([7]; time 30 min): 60.0 ± 7.1 ms; Heart rate ([7]; time 45 min): 395.8 ± 33.3 beats/min; PQ ([7]; time 45 min): 52.5 ± 2.5 ms; QRS ([7]; time 45 min): 20.0 ± 0.0 ms; QT ([7]; time 45 min): 58.8 ± 2.2 ms; Heart rate ([7]; time 60 min): 377.0 ± 26.4 beats/min; PQ ([7]; time 60 min): 53.8 ± 2.2 ms; QRS ([7]; time 60 min): 20.0 ± 0.0 ms; QT ([7]; time 60 min): 63.8 ± 6.5 ms; Locomotor activity [8]: significant decrease; Ki [9]: 40.5 nM; H3/σ1 [9]: 0.1; H3/σ2 [9]: 0.68
